Patent US10716778B2, “Use of compounds that are able to increase the serum IGF-1 level for the preparation of a therapeutical composition for treatment of various disease states associated with a reduced IGF-1 serum level in humans and animals” (VEIJLEN N.V., priority 2003, dated 2020)
Where “and” joins values, the source holds several entries; their conditions need not be identical. Identical values can stand only once.

Assays:
[1] = tested on: poor-growing piglets; assay: Weight gain and appearance of poor-growing piglets treated with IAA (Example 7); format: in vivo, piglets (Dutch Landrace)
Description: The trial was done in a well-managed farm with 1000 sows of the Dutch Landrace. Although the farm is well run, the technical performance is not optimal. There were latent problems with mortality and with growth rates of the piglets. There are too many poor-growing piglets, without fully understanding the technical or veterinary reason. There is no clear pathology to be seen on the farm.
The farmer selected the poor-growing piglets for this weaning period. The piglets were weaned for two days at the start of the trial. There were three groups: the normal well-growing piglets, which served as a control group; the B group with 78 poor growers that are treated with 12.5 mg/kg/LW (Life Weight) IAA; and the X group with 52 poor growers that are not treated.
Blood samples for IGF-1 measuring were taken from each group at the beginning of the trial and at the end of the trial. Two pens (13 piglets) of the B and X groups were weighed at the beginning and at the end of the trial. The active ingredient IAA was mixed in dextrose. […] The B group received the treatment five days after the first IGF-1 measuring.

[2] = tested on: IGF-1; assay: IgF-1 level in type 2 diabetic patients during medication with IAA (Example 4); format: in vivo, human
Description: Five male type 2 diabetic patients took part in the study. They were all very difficult to regulate. When the study started, the average HbA1c was to be approximately 9.0%. The patients had no other clinical problems. In addition, the IgF-BP3/IgF-1 ratio had to be over 10. The age of the subjects were between 45 years and 75 years with an average of 58. The period of the investigation was 6 months. […] The following parameters were checked: IGF-1 and IGF-PB-3. Also, at the start, safety parameters (liver tests, hematology) were determined. Every 8 weeks, HbA1c was determined.
All samples from one subject were analyzed in the same run to avoid intra-assay variability. Quantification of IGF-1 was performed using an immunoradiometric assay (IRMA) (DSL-5600 ACTIVE™, DSL, Germany GmbH, Germany). Intra- and inter-assay variance was: 4.0% and 9.2% and 1.5% for IGF-1. The Hba1c was analyzed on HPLC Menarine HA 81-60.
The total work output of every subject was calculated with a 2-way ANOVA for repeated measures and the hormone values were analyzed with the Wilcoxon test. In all cases, a p value of <0.05 was accepted as significant.

[3] = tested on: growing laying hens; assay: Weight and weight gain of growing laying hens treated with IAA (Example 8); format: in vivo; parameters: unit not given here
Protocol: Growing laying hens of 10 weeks old were selected in the flock to create four groups of ten hens: • Group GB: Ten normally growing hens, not treated • Group GNA: Ten normally growing hens, treated with 10 mg/kg/LW IAA (LW=live weight) • Group SB: Ten poorly growing hens, not treated • Group SNA: 10 poorly growing hens, treated with 10 mg/kg/LW IAA.
In this example, not only the poor-growing birds were treated, but also normally growing animals. The birds receive daily forced oral treatment with a capsule that contains IAA. The different groups are weighed every week. Treatment is continued at least until the hens start laying, to see if the period of onset of laying is influenced by the treatment.

[4] = tested on: IGF-1; assay: IgF-1 level in athletes with intensive training taking IAA or placebo (Example 6); format: in vivo, human; conditions: group A
Protocol: Twenty athletes entered the study. Other medication was excluded from the research. The period of the treatment was 12 weeks. They were not allowed to take any other medication or food supplements. They continued their level of training. After 2 weeks, the training was intensified by 25%. At baseline, at the start, after 2 weeks, 4 weeks, 6 weeks, 8 weeks, 10 weeks and 12 weeks, IGF-1 and safety parameters (liver tests, hematology) were determined. The group was divided into two groups of ten athletes. Group A received IAA; group B got a placebo.
All samples from one subject were analyzed in the same run to avoid intra-assay variability. GH was assayed with a chemiluminescence kit (Nichols Institute Diagnostics, San Juan Capistrano, Calif., USA). Quantification of IGF-1 was performed using an immunoradiometric assay (IRMA) (DSL-5600 ACTIVE, DSL, Germany GmbH, Germany). Intra- and inter-assay variance was: 4.0% and 9.2% for GH; 3.0% and 1.5% for IGF-1.
The total work output of every subject was calculated with a two-way ANOVA for repeated measures and the hormone values were analyzed with the Wilcoxon test. In all cases, 1 p value of <0.05 was accepted as significant.
The following schedule was used for the supplements. 1 IAA capsule contained 10 mg IAA, 100 mg NaCl, 140 mg WPC 70. One Glutamine capsule contained 500 mg glutamine. The amino acids that were taken are as described in Table 1.

indole acetic acid [IAA] was tested, and the “appearance of piglets in group B versus group X” value ([1]; after one week) was “looking better”, the “weight of poor-growing animals” value ([1]; animal experiments, summary) was “increased to normal levels” and the “average extra weight gain of treated group over non-treated” value ([1]; pens that were weighed, period of 21 days) was ~0.5 kg. For the same substance, the “av. Weight gain” value ([1]; treated pens of group B, 21 days, acetic acid) was 7.02 kg and 6.08 kg, the “Weighing 1 average” value ([1]; treated pens of group B, beginning of the trial, average per piglet, acetic acid) was 6.62 kg and 6.77 kg and the “Weighing 1 Total” value ([1]; treated pens of group B, beginning of the trial, total per pen, acetic acid) was 86 (n = 13) kg and 88 (n = 13) kg. The “Weighing 2 average” value ([1]; treated pens of group B, end of the trial, average per piglet, acetic acid) was 13.64 kg and 12.85 kg, the “Weighing 2 Total” value ([1]; treated pens of group B, end of the trial, total per pen, acetic acid) was 150 (n = 11) kg and 167 (n = 13) kg and the “average extra growth of pen B 3 L(eft) over neighbors from pen X 4 L(eft)” value ([1]; treated vs non-treated pen) was 850 grams. For the same substance, the “IgF-1 level, average” value ([2]; Month 0 (start), average of 5 subjects, acetic acid) was 10.8 nmol/L and 10.7 nmol/L, the IgF-1 level ([2]; Month 0 (start), individual subjects, acetic acid) was 11.1 nmol/L and 9.6 nmol/L and 10.4 nmol/L and 11.2 nmol/L and 11.3 nmol/L and the “IgF-1 level, average” value ([2]; Month 1, average of 5 subjects) was 11.4 nmol/L. The IgF-1 level ([2]; Month 1, individual subjects, acetic acid) was 12.5 nmol/L and 10.1 nmol/L and 10.8 nmol/L and 11.6 nmol/L and 12.0 nmol/L, the “IgF-1 level, average” value ([2]; Month 2, average of 5 subjects) was 12.0 nmol/L and the IgF-1 level ([2]; Month 2, individual subjects, acetic acid) was 13.1 nmol/L and 10.6 nmol/L and 11.6 nmol/L and 11.9 nmol/L and 12.6 nmol/L. The “IgF-1 level, average” value ([2]; Month 3, average of 5 subjects) was 12.5 nmol/L, the IgF-1 level ([2]; Month 3, individual subjects, acetic acid) was 13.8 nmol/L and 11.1 nmol/L and 12.1 nmol/L and 12.3 nmol/L and 13.0 nmol/L and the “IgF-1 level, average” value ([2]; Month 4, average of 5 subjects) was 13.0 nmol/L. For the same substance, the IgF-1 level ([2]; Month 4, individual subjects, acetic acid) was 14.3 nmol/L and 11.8 nmol/L and 12.6 nmol/L and 12.8 nmol/L and 13.5 nmol/L, the “IgF-1 level, average” value ([2]; Month 5, average of 5 subjects) was 13.5 nmol/L and the IgF-1 level ([2]; Month 5, individual subjects, acetic acid) was 14.9 nmol/l and 12.1 nmol/l and 13.3 nmol/l (2×) and 13.9 nmol/l. For the same substance, the “IgF-1 level, average” value ([2]; Month 6, average of 5 subjects) was 14.1 nmol/L, the IgF-1 level ([2]; Month 6, individual subjects, acetic acid) was 15.2 nmol/L and 12.9 nmol/L and 13.9 nmol/L and 14.4 nmol/L and 14.3 nmol/L and the weight ([3]; group GNA (normally growing hens, 10 mg/kg/LW IAA daily oral capsule), weekly weighing 1) was 740. The total weight gain ([3]; group GNA, untreated GB 407.5) was 482, the weight ([3]; group GNA, weekly weighing 2) was 883 and the weight ([3]; group GNA, weekly weighing 3) was 996. It also gave a weight ([3]; group GNA, weekly weighing 4) of 1095, a weight ([3]; group GNA, weekly weighing 5) of 1222 and a weight gain ([3]; group GNA, weighing 2 vs 1) of 143. The weight gain ([3]; group GNA, weighing 3 vs 2) was 113, the weight gain ([3]; group GNA, weighing 4 vs 3) was 99 and the weight gain ([3]; group GNA, weighing 5 vs 4) was 127. It also gave a weight ([3]; group SNA (poorly growing hens, 10 mg/kg/LW IAA daily oral capsule), weekly weighing 1) of 489.5, a total weight gain ([3]; group SNA, untreated SB 408.5) of 505.5 and a weight ([3]; group SNA, weekly weighing 2) of 598. For the same substance, the weight ([3]; group SNA, weekly weighing 3) was 718, the weight ([3]; group SNA, weekly weighing 4) was 885 and the weight ([3]; group SNA, weekly weighing 5) was 995. It also gave a weight gain ([3]; group SNA, weighing 2 vs 1) of 108.5, a weight gain ([3]; group SNA, weighing 3 vs 2) of 120 and a weight gain ([3]; group SNA, weighing 4 vs 3) of 167. The weight gain ([3]; group SNA, weighing 5 vs 4) was 110, the “increase of IgF-1 level” value ([4]; over a period of 8 weeks (so in the source), statistically significant) was “ca. 47.7%” and the “IgF-1 level, average test group” value ([4]; time point 0 (start), blood taken every 2 weeks over 12 weeks) was 27.9 nmol/L. For the same substance, the “IgF-1 level, average test group” value ([4]; time point 1) was 35.8 nmol/L, the “IgF-1 level, average test group” value ([4]; time point 2) was 38.9 nmol/L and the “IgF-1 level, average test group” value ([4]; time point 3) was 42.5 nmol/L. The “IgF-1 level, average test group” value ([4]; time point 4) was 41.7 nmol/L, the “IgF-1 level, average test group” value ([4]; time point 5) was 41.4 nmol/L and the “IgF-1 level, average test group” value ([4]; time point 6 (end of the study)) was 41.2 nmol/L.
